Source: publication PMC6271500, “Bowman-Birk Protease Inhibitor from Vigna unguiculata Seeds Enhances the Action of Bradykinin-Related Peptides” (Molecules, 2014)

Legend:
[1] = Dynamic light scattering, free peptides and free BTCI; format: physicochemical; settings: 25 µM, 2 mM Tris-HCl pH 7.4, 37 °C
Procedure: (§1) The hydrodynamic properties of the BTCI through the complex formation with Bk and analogues were monitored using DLS technique with laser source operated at 800 nm on the DynaPro LSR model (Wyatt Technology Corporation, Santa Barbara, CA, USA). The internal temperature was controlled by a Peltier system coupled to the detector. The Bk, Bk-related peptides, BTCI and BTCI-Bk, BTCI-Bk-related peptides complexes, were incubated for 30 minutes in 2 mM Tris-HCl pH 7.4 and then centrifuged at 5000 g and filtered ([…]) before the DLS experiments. The average of 100 acquisitions for each measure was considered for BTCI (25 µM) and synthetic Bk-related peptides (25 µM) separately and subsequently for the BTCI-Bk complexes (1:1). The formation of complexes was analyzed at 37 °C, considering the relationship of the scattered light intensity signal and the hydrodynamic diameter of the samples, using the Dynamics V6 program (Wyatt Technology Corporation).

BTCI = assay: Dynamic light scattering, BTCI-Bk complex formation; format: binding, Vigna unguiculata
Procedure: as §1

[2] = system: bovine pancreatic trypsin; assay: Trypsin inhibition by BTCI (BAPNA substrate); format: biochemical; settings: BTCI 10 µM, peptide 0–10 µM
Procedure: (§2) The inhibitory activities of BTCI against bovine pancreatic trypsin (25 kDa; A280^1% = 15.90) and chymotrypsin (24 kDa; A280^1% = 20.40) (Sigma Co.) were first determined in the absence of Bk and Bk-related peptides. Briefly, the residual enzymatic activities were assayed by mixing 40 µL of chymotrypsin (28.60 µM) or trypsin (2.57 µM) with BTCI at concentration range of 0–10 µM for trypsin and 0–40 µM for chymotrypsin at 25 °C for 15 minutes. After that, 200 µL of 0.40·mg·mL^−1 N-glutaryl-L-phenylalanine-p-nitroanilide (GPNA) in 50 mM Tris-HCl, 20 mM CaCl2, pH 7.6 for chymotrypsin assay or 0.43 mg·mL^−1 Nα-benzoyl-DL-arginine 4-nitroanilide hydrochloride (BAPNA) in 50 mM Tris-HCl, 20 mM CaCl2, pH 8.2 for trypsin assay were added. Substrate hydrolysis was done for 15 minutes and stopped by adding 30% (v/v) acetic acid. The enzymatic assays were also carried out in the presence of Bk at similar concentration of BTCI. The relative enzymatic activities were evaluated by the liberation of p-nitroanilide, which was monitored at 410 nm using a SpectraMax Plus 384 Microplate Reader spectrophotometer (Molecular Devices, Sunnyvale, CA, USA). The obtained values are an average of three independent measurements. Inhibition curves were obtained by plotting relative activities of the proteases vs. BTCI concentration in the absence or presence of Bk and Bk-related peptides. […]

bovine chymotrypsin = assay: Chymotrypsin inhibition by BTCI (GPNA substrate); format: biochemical; settings: BTCI 40 µM, peptide 0–10 µM
Procedure: as §2

**Q.** With [Val]^1[Thr]^6-bradykinyl-Gln-Ser [Bk2] as the substance, how does the “polydispersity, peptide” value [1] read?
**A.** The value was “lower than 0.15”.

**Q.** What about the “polydispersity of peptide complexed with BTCI (in words)” value (BTCI; 1:1 complex, pH 7.4, 37 °C) of the same substance?
**A.** The value was “moderate polidispersity”.

**Q.** And the “hydrodynamic diameter of BTCI in the presence of peptide” value (BTCI; BTCI 25 µM : peptide 25 µM (1:1), 30 min, 2 mM Tris-HCl pH 7.4, 37 °C)?
**A.** Its value is “increased from 1.7 nm to 3.3 nm”.

**Q.** And the “effect of peptide on BTCI inhibition of trypsin” value [2]?
**A.** The value was “did not interfer in their activities”.

**Q.** What about the “effect of peptide on BTCI inhibition of chymotrypsin” value (bovine chymotrypsin) of the same substance?
**A.** Its value is “did not interfer in their activities”.
